Source: patent US5750696A, “Dioxacycloalkane compound having renin-inhibitory activity” (Japan Tobacco Inc., priority 1992, dated 1998)

Columns and labels:
[1] = target: T1, renin activity in human plasma (Homo sapiens, UniProt P00797); test: Inhibitory action on renin activity in human plasma; type: biochemical; settings: 37° C., 1 hour, angiotensin I by radio immunoassay
T1 construct: Human plasma (200 μl); from tissue; host or cells: human plasma
T1 sequence (P00797 67-406): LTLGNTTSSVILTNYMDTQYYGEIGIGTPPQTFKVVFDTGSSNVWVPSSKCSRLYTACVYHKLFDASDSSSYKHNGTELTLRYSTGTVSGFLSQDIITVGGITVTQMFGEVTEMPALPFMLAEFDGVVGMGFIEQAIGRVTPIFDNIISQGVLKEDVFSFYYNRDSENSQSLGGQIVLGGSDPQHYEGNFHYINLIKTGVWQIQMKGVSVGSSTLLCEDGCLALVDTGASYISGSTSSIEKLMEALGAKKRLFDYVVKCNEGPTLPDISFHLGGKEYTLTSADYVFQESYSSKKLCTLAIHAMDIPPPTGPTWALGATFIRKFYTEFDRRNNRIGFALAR
Method: (§1) In the following, the test results of the inhibitory action of the dioxacycloalkane compound of the above-mentioned formula [1] of the present invention, on the renin activity in human plasma and the hypotensive action on nonanesthetized marmosets under salt intake control are shown.
Inhibitory action on renin activity in human plasma
Human plasma (200 μl), a pH adjusting solution (20 μl), PMSF (10 μl), and a solution (10 μl) of the dioxacycloalkane compound of the present invention in dimethyl sulfoxide or dimethyl sulfoxide (10 μl ) as a control were placed in plastic tubes for RIA. Two sets of these were prepared and one set of them was incubated at 37° C. for 1 hour and the other was incubated at 4° C. for 1 hour.
After incubation, the amount of angiotensin I was quantitatively assayed by the radio immunoassay method. The renin activity in plasma was calculated by subtracting the amount of angiotensin I in the reaction mixture incubated at 4° C. from that in the reaction mixture incubated at 37° C. Percent inhibitory activity was calculated from the following formula [formula] The molar concentration necessary for 50% inhibition of activity (IC5 0) was determined from the inhibitory activity value obtained by the above calculating formula. [RENIN RIABEADS KIT (Dinabot Ltd.) was used for the measurement.]

[2] = system: non-anesthetized marmosets; test: Hypotensive action on non-anesthetized marmosets under salt intake control; type: in vivo; settings: 10 mg/kg, po, low salt diet, tail-cuff method, relative to value before administration
Text: as §1
Hypotensive action on non-anesthetized marmosets under salt intake control
Non-anesthetized marmosets (weighing 310-370 g) raised on a low salt diet (containing 0.02% salt, 1/10 of the normal diet) for a week were orally administered with the compound (10 mg/kg) of Example 1 dissolved in 0.1 M citric acid, at the ratio of 2 ml/kg. The blood pressure was measured with the lapse of time before and after the administration by the tail-cuff method, and the hypotensive action was calculated in percentage relative to the value measured before the administration.

SMILES	IC50 [1] [nM]	further results
CN(C(=O)[C@H](Cc1ccccc1)NC(=O)N1CCCCC1)[C@@H](Cc1c[nH]cn1)C(=O)N[C@@H](CC1CCCCC1)[C@@H](O)C[C@@H]1OCOC1(C)C [Example 1, (4S)-4-[(2S,3S)-4-cyclohexyl-2-hydroxy-3-[[Nα-methyl-N α-(N-piperidinocarbonyl-L-phenylalanyl)-L-histidyl]amino]butyl]-5,5-dimethyl-1,3-dioxolane]	0.9	Hypotensive action (%) 0.5 hr later ([2]; 0.5 hr later): 10%; Hypotensive action (%) 1 hr later ([2]; 1 hr later): 12%; Hypotensive action (%) 3 hrs later ([2]; 3 hrs later): 10%; Hypotensive action (%) 5 hrs later ([2]; 5 hrs later): 10%; Hypotensive action (%) 7 hrs later ([2]; 7 hrs later): 3%
CN(C(=O)[C@H](Cc1ccccc1)NC(=O)N1CCCCC1)[C@@H](Cc1c[nH]cn1)C(=O)N[C@@H](CC1CCCCC1)[C@@H](O)C[C@H]1OCOC1(C)C [Example 2, (4R)-4-[(2S,3S)-4-cyclohexyl-2-hydroxy-3-[[Nα-methyl-N α-(N-piperidinocarbonyl-L-phenylalanyl)-L-histidyl]amino]butyl]-5,5-dimethyl-1,3-dioxolane]	21	
CC1(C)OCO[C@H]1C[C@H](O)[C@H](CC1CCCCC1)NC(=O)[C@H](Cc1c[nH]cn1)NC(=O)[C@H](Cc1ccccc1)OC(=O)N1CCCCC1 [Example 3, (4S)-4-[(2S,3S)-4-cyclohexyl-2-hydroxy-3-[[Nα-[(2S)-3-phenyl-2-piperidinocarbonyloxypropionyl]-L-histidyl]amino]butyl]-5,5-dimethyl-1,3-dioxolane]	7	
CC1(C)OCO[C@H]1C[C@H](O)[C@H](CC1CCCCC1)NC(=O)[C@H](Cc1c[nH]cn1)NC(=O)[C@H](Cc1ccccc1)NC(=O)N1CCCCC1 [Example 4, (4S)-4-[(2S,3S)-4-cyclohexyl-2-hydroxy-3-[[N α-(N-piperidino-carbonyl-L-phenylalanyl)-L-histidyl]amino]butyl]-5,5-dimethyl-1,3-dioxolane]	1.8	
CSC[C@H](NC(=O)[C@H](Cc1ccccc1)OC(=O)N1CCN(C)CC1)C(=O)N[C@@H](CC1CCCCC1)[C@@H](O)C[C@@H]1OCOC1(C)C [Example 5, (4S)-4-[(2S,3S)-4-cyclohexyl-2-hydroxy-3-[[S-methyl-N-[(2S)-3-phenyl-2-(4-methylpiperazinyl)carbonyloxypropionyl]-L-cysteinyl]amino]butyl]-5,5-dimethyl-1,3-dioxolane]	14	
CN(C(=O)[C@H](Cc1ccccc1)NS(=O)(=O)N1CCCCC1)[C@@H](Cc1c[nH]cn1)C(=O)N[C@@H](CC1CCCCC1)[C@@H](O)C[C@@H]1OCOC1(C)C [Example 6, (4S)-4-[(2S,3S)-4-cyclohexyl-2-hydroxy-3-[[Nα-methyl-N α-(N-piperidinosulfonyl-L-phenylalanyl)-L-histidyl]amino]butyl]-5,5-dimethyl-1,3-dioxolane]	11	
CC1CCN(C(=O)N[C@@H](Cc2ccccc2)C(=O)N(C)[C@@H](Cc2c[nH]cn2)C(=O)N[C@@H](CC2CCCCC2)[C@@H](O)C[C@@H]2OCOC2(C)C)CC1 [Example 9, (4S)-4-[(2S,3S)-4-cyclohexyl-2-hydroxy-3-[[Nα-methyl-N α-[N-(4-methylpiperidino)carbonyl-L-phenylalanyl]-L-histidyl]-amino]butyl]-5,5-dimethyl-1,3-dioxolane]	3	
CCN(CC)C(=O)N[C@@H](Cc1ccccc1)C(=O)N(C)[C@@H](Cc1c[nH]cn1)C(=O)N[C@@H](CC1CCCCC1)[C@@H](O)C[C@@H]1OCOC1(C)C [Example 10, (4S)-4-[(2S,3S)-4-cyclohexyl-2-hydroxy-3-[[Nα-methyl-N α-[N-(diethylamino)carbonyl-L-phenylalanyl]-L-histidyl]amino]butyl]-5,5-dimethyl-1,3-dioxolane]	7.8	
CN(C(=O)[C@H](Cc1ccccc1)NC(=O)N1CCCCC1)[C@@H](Cc1c[nH]cn1)C(=O)N[C@@H](CC1CCCCC1)[C@@H](O)C[C@@H]1OC(C)(C)OC1(C)C [Example 11, (4S)-4-[(2S,3S)-4-cyclohexyl-2-hydroxy-3-[[Nα-methyl-N α-(N-piperidinocarbonyl-L-phenylalanyl)-L-histidyl]amino]butyl]-2,2,5,5-tetramethyl-1,3-dioxolane]	13	
CN(C(=O)[C@H](Cc1ccccc1)NC(=O)N1CCCCC1)[C@@H](Cc1c[nH]cn1)C(=O)N[C@@H](CC1CCCCC1)[C@@H](O)C[C@@H]1OC(c2ccccc2)OC1(C)C (stereo partly drawn) [Example 12, (4S)-4-[(2S,3S)-4-cyclohexyl-2-hydroxy-3-[[Nα-methyl-N α-(N-piperidinocarbonyl-L-phenylalanyl)-L-histidyl]amino]butyl]-5,5-dimethyl-2-phenyl-1,3-dioxolane]	4	
